Usually EC50 stands for the concentration that produces a half-maximal response. In general, EC90 refers to the concentration needed for an effect of 90%. As a reminder, the CC50 is the concentration at which the toxic effect on the cells reaches its halfway point.

For data set [1], the system named is Ebolavirus. As to the kind of experiment: Antiviral activity against Ebola virus infected in human HeLa cells assessed as reduction in viral cytopathic effect. Conditions: Orthoebolavirus. The data set is classed as functional, organism-based. For orientation: Protection from cytopathic effect is a common read-out in antiviral testing.
Data set [2] deals with Measles morbillivirus. As to the kind of experiment: Antiviral activity against Measles virus infected in African green monkey Vero cells assessed as reduction in viral cytopathic effect. The data set is classed as functional, organism-based.
A short description of data set [3]: Selectivity index, ratio of CC50 for cytotoxicity against African green monkey Vero cells infected with DENV-2 assessed as reduction in cell viability by neutral red analysis to EC50 for antiviral activity against DENV-2 infected in human Huh-7 cells assessed as reduction in virus-induced cytopathic effect by neutral red analysis. It is filed as toxicity, cell-based. As to conditions: read-out: Ratio CC50/EC50.

Data set [4] concerns Middle East respiratory syndrome-related coronavirus. The experiment in a line: Antiviral activity against MERS-CoV infected in vervet monkey MA-104 cells assessed as reduction in virus-induced cytopathic effect measured after 15 to 30 mins by visual analysis. The data set is classed as functional, organism-based. As to conditions: MA104.
Data set [5] shares this test system. As to the kind of experiment: Antiviral activity against MERS-CoV infected in vervet monkey MA-104 cells assessed as reduction in virus-induced cytopathic effect measured after 15 to 30 mins by neutral red dye based assay. As to conditions: MA104. It is filed as functional, organism-based.
A short description of data set [6]: Selectivity index, ratio of CC50 for cytotoxicity against vervet monkey MA-104 cells infected with MERS-CoV assessed as reduction in cell viability by neutral red dye based analysis to EC50 for antiviral activity against MERS-CoV infected in vervet monkey MA-104 cells assessed as reduction in virus-induced cytopathic effect by neutral red dye based analysis. The data set is classed as toxicity. As to conditions: read-out: Ratio CC50/EC50.

A short description of data set [7]: Selectivity index, ratio of CC50 for cytotoxicity against vervet monkey MA-104 cells infected with MERS-CoV assessed as reduction in cell viability by visual analysis to EC50 for antiviral activity against MERS-CoV infected in vervet monkey MA-104 cells assessed as reduction in virus-induced cytopathic effect by visual analysis. The data set is classed as toxicity, cell-based. As to conditions: read-out: Ratio CC50/EC50.

The subject of data set [8] is Influenza A virus. As to the kind of experiment: Antiviral activity against Influenza A virus H1N1 infected in dog MDCK cells assessed as inhibition of viral replication measured after 15 to 30 mins by neutral red dye based analysis. The data set is classed as functional, organism-based.
The test system of data set [9] is Influenza B virus. As to the kind of experiment: Antiviral activity against Influenza B virus infected in dog MDCK cells assessed as inhibition of viral replication measured after 15 to 30 mins by visual analysis. It is filed as functional, organism-based.
Data set [10] has as its system Influenza B virus. The experiment in a line: Antiviral activity against Influenza B virus infected in dog MDCK cells assessed as inhibition of viral replication measured after 15 to 30 mins by neutral red dye based analysis. The data set is classed as functional, organism-based.
Data set [11] can be described thus: Selectivity index, ratio of CC50 for cytotoxicity against dog MDCK cells infected with Influenza A virus H7N9 assessed as reduction in cell viability by visual analysis to EC50 for antiviral activity against Influenza A virus H7N9 infected in dog MDCK cells assessed as inhibition of viral replication by visual analysis. The data set is classed as toxicity, cell-based. As to conditions: read-out: Ratio CC50/EC50.

Data set [12] can be described thus: Selectivity index, ratio of CC50 for cytotoxicity against dog MDCK cells infected with Influenza B virus assessed as reduction in cell viability by neutral dye based analysis to EC50 for antiviral activity against Influenza B virus infected in dog MDCK cells assessed as inhibition of viral replication by neutral red dye based analysis. As to conditions: read-out: Ratio CC50/EC50. It is filed as toxicity.

For data set [13], the system named is Influenza B virus. The experiment in a line: Antiviral activity against Influenza B virus infected in dog MDCK cells assessed as reduction in virus yield measured after 3 days by visual analysis. The data set is classed as functional. As to conditions: 72 h, time 3 day.
Data set [14] can be described thus: Selectivity index, ratio of CC50 for cytotoxicity against dog MDCK cells infected with Influenza A virus H1N1 assessed as reduction in cell viability by visual analysis to EC90 for antiviral activity against Influenza A virus H1N1 infected in dog MDCK cells assessed as reduction in viral yield by visual analysis. It is filed as toxicity, cell-based.
A short description of data set [15]: Selectivity index, ratio of CC50 for cytotoxicity against dog MDCK cells infected with Influenza A virus H3N2 assessed as reduction in cell viability by visual analysis to EC90 for antiviral activity against Influenza A virus H3N2 infected in dog MDCK cells assessed as reduction in viral yield by visual analysis. It is filed as toxicity, cell-based.
Data set [16] concerns Tacaribe virus. The experiment in a line: Antiviral activity against Tacaribe virus infected in African green monkey Vero cells assessed as inhibition of viral replication by neutral red dye based analysis. The data set is classed as functional, organism-based. Conditions: Mammarenavirus tacaribeense.
Data set [17] deals with Mammarenavirus choriomeningitidis. The experiment in a line: Antiviral activity against Lymphocytic choriomeningitis virus infected in African green monkey Vero E6 cells assessed as reduction in viral yield measured for 3 days. Conditions: Vero C1008, 72 h, time 3 day. It is filed as functional.
Data set [18] concerns Orthohantavirus maporalense. The experiment in a line: Antiviral activity against Maporal virus infected in African green monkey Vero E6 cells assessed as reduction in viral yield measured for 3 days. It is filed as functional. Conditions: Vero C1008, 72 h, time 3 day.
Data set [19] relates to Severe fever with thrombocytopenia syndrome virus. As to the kind of experiment: Antiviral activity against Severe fever with thrombocytopenia syndrome virus infected in African green monkey Vero E6 cells assessed as reduction in viral yield measured for 3 days. The data set is classed as functional. As to conditions: Vero C1008, 72 h, time 3 day.
Data set [20] in a line: Cytotoxicity against African green monkey Vero 76 cells infected with La Crosse virus assessed as reduction in cell viability by visual analysis. It is filed as toxicity, cell-based. As to conditions: chlorocebus sabaeus.
A short description of data set [21]: Cytotoxicity against African green monkey Vero E6 cells infected with Lymphocytic choriomeningitis virus assessed as reduction in cell viability. It is filed as toxicity, cell-based, Vero C1008. Conditions: chlorocebus sabaeus.
Data set [22] in a line: Selectivity index, ratio of CC50 for cytotoxicity against African green monkey Vero 76 cells infected with Rift Valley fever virus assessed as reduction in cell viability to EC90 for antiviral activity against Rift Valley fever virus infected in African green monkey Vero 76 cells assessed as reduction in viral yield. It is filed as toxicity, cell-based.
Data set [23] can be described thus: Selectivity index, ratio of CC50 for cytotoxicity against African green monkey Vero 76 cells infected with La Crosse virus assessed as reduction in cell viability by visual analysis to EC50 for antiviral activity against La Crosse virus infected in African green monkey Vero 76 cells assessed as reduction in viral replication by visual analysis. The data set is classed as toxicity, cell-based. Conditions: read-out: Ratio CC50/EC50.

The nature of data set [24]: Selectivity index, ratio of CC50 for cytotoxicity against African green monkey Vero E6 cells infected with Lymphocytic choriomeningitis virus assessed as reduction in cell viability to EC90 for antiviral activity against Lymphocytic choriomeningitis virus infected in African green monkey Vero E6 cells assessed as reduction in viral yield. It is filed as toxicity, cell-based, Vero C1008.

Data set [25] in a line: Selectivity index, ratio of CC50 for cytotoxicity against African green monkey Vero E6 cells infected with Oropouche virus assessed as reduction in cell viability by neutral red dye based analysis to EC50 for antiviral activity against Oropouche virus infected in African green monkey Vero E6 cells assessed as reduction in viral replication by neutral red dye based analysis. It is filed as toxicity, Vero C1008. Conditions: read-out: Ratio CC50/EC50.

A short description of data set [26]: Selectivity index, ratio of CC50 for cytotoxicity against African green monkey Vero cells infected with Pichinde virus assessed as reduction in cell viability by neutral red dye based analysis to EC50 for antiviral activity against Pichinde virus infected in African green monkey Vero cells assessed as reduction in viral replication by neutral red dye based analysis. The data set is classed as toxicity. As to conditions: read-out: Ratio CC50/EC50.

Data set [27] can be described thus: Selectivity index, ratio of CC50 for cytotoxicity against African green monkey Vero 76 cells infected with Punta Toro virus assessed as reduction in cell viability by neutral red dye based analysis to EC50 for antiviral activity against Punta Toro virus infected in African green monkey Vero 76 cells assessed as reduction in viral replication by neutral red dye based analysis. It is filed as toxicity. As to conditions: read-out: Ratio CC50/EC50.

A short description of data set [28]: Selectivity index, ratio of CC50 for cytotoxicity against African green monkey Vero cells infected with Tacaribe virus assessed as reduction in cell viability by neutral red dye based analysis to EC50 for antiviral activity against Tacaribe virus infected in African green monkey Vero cells assessed as reduction in viral replication by neutral red dye based analysis. It is filed as toxicity. Conditions: read-out: Ratio CC50/EC50.

Data set [29] is described as follows: Toxicity in BALB/c mouse infected with A/Ca/04/09 (H1N1) assessed as animal survival at 10 to 300 mg/kg, ip administered twice a day for 5 days. It is filed as organism-based. Conditions: in vivo, 120 h, dose 10-300 mg/kg, time 5 day.

For `Nc1ncnc2c([C@@H]3N[C@H](CO)[C@@H](O)[C@H]3O)c[nH]c12` [GALIDESIVIR], the EC50 in data set [1] was 3000 nM; in [2], 1800 nM; in data set [4], 32000 nM; in [5], 36000 nM. The selectivity ratio in data set [3] is greater than 6.7; in data set [6], greater than 3.1; in [7] it was greater than 2.8.

With `Nc1ncnn2c([C@@H]3N[C@H](CO)[C@@H](O)[C@H]3O)ccc12`, the EC50 in data set [8] is 320 nM; in data set [9], 320 nM; in data set [10], 260 nM; in data set [16], 330 nM. For the same compound, the selectivity ratio in data set [11] is 76; in data set [12] it was 38; in data set [14], 240; in data set [15] it was 64; in [22], 78; in [23], greater than 240. Besides, the selectivity ratio turned out to be 80 in data set [24]; 75 in [25]; 28 in data set [26]; 37 in [27]; 20 in [28]. The EC90 in data set [13] stood at 300 nM; in data set [17], 150 nM; in data set [18], 860 nM; in data set [19] it was 220 nM. The figures for the CC50 in data set [20] and in [21] were 24000 nM and 12000 nM, respectively. In addition, the Activity entry in data set [29] is on record as “Non-Toxic”.

These data come from ChEMBL document CHEMBL5257097, “An Isomer of Galidesivir That Potently Inhibits Influenza Viruses and Members of the Bunyavirales Order” (ACS Med Chem Lett, 2023).
